In patent US5582997A, “Lysine/leucine polypeptides, mixture sets and libraries thereof” (priority 1994, dated 1996):
Where no end group is shown, it is not given here.

What was measured:
[1] = test system: Staphylococcus aureus (ATCC 29213); format: cell-based; details: for IC50 (μg/ml) against S. aureus: individual polypeptides
Method: The polypeptide libraries of Example 1 were assayed for activity against Staphylococcus aureus [(ATCC 29213); ATCC, 12301 Parklawn Drive, Rockville, Md.]
(§1) To initiate the exponential phase of bacterial growth prior to the assay, a sample of bacteria grown overnight (about 18 hours) at 37° C. in Mueller Hinton broth (MH-Becton Dickinson Microbiology Systems) was reinoculated and incubated at 37° C. A final concentration of […] was used in all assays, vortexed and diluted 10-fold in Yeast Media (YM) broth (Difco Laboratories, Detroit, Mich.), for an approximate final concentration of 10^5 to 5×10^5 CFU/ml. The assays were carried out in 96-well tissue culture plates (Costar, Pleasanton, Calif.), as described in Blondelle et al., Biochem., 31:12688-12694 (1992). In brief, a bacterial suspension in 2× broth was added to the polypeptides mixture sets at concentrations derived from serial two-fold dilutions varying from 1000 μg/ml to 4 μg/ml. The plates were then incubated 21 hours at 37° C. The relative percent growth of the bacteria was determined by the optical density at 620 nm (OD620) using a Titertek Multiskan Plus apparatus (Flow Laboratories, McLean, Va.). The concentration necessary to inhibit 50 percent bacterial growth (IC50) was then calculated using the software program Graphpad (ISI, San Diego, Calif.).

E. coli ATCC 25922 = format: cell-based; details: for IC50 (μg/ml) against E. coli: individual polypeptides
Method: as §1
Studies similar to those with S. aureus were carried out using E. coli ATCC 25922. Here, results were not as dramatic, but enhancements in activity of about 2-fold were observed using the set libraries of Example 1.

[2] = test system: human erythrocytes (red blood cells; RBCs); assay: Hemolytic activity; format: cell-based; details: for HC50 (μg/ml) against Erythrocytes: red cells of human
Method: The hemolytic activities of the polypeptide mixture sets were determined by using human erythrocytes (red blood cells; RBCs). The cells were washed three times with phosphate-buffered saline (PBS/35 mM phosphate buffer--0.15M NaCl, pH 7.0) and resuspended in PBS. The hemolytic activity of the polypeptide sets were determined as described in Blondelle et al., Biochem. Biophys. Acta, 1202:331-336 (1993) using 96 well tissue culture plates. In brief, 100 μl of 0.5 percent RBC solution were added to an equal volume of peptides in PBS. The plates were incubated for one hour at 37° C. and the optical density (OD) of the supernatant was measured at 414 nm. The concentration in peptide necessary to lyse 50 percent RBCs (HD50) was then determined for each peptide using a sigmoidal curve fitting method (Graphpad).

[3] = Decarboxylase-like activity: catalysed decarboxylation of oxalacetate; format: biochemical; details: for kcat × 10^3 (S^-1): values are kcat × 10^3
Method: Each peptide mixture was assayed at 0.2 mM in the presence of 11.4 mM of oxalacetic acid (C4 H4 O5) at pH 7.0 (dilution done in PBS--35 mM phosphate buffer--0.15M NaCl) and 22° C. The kinetics of the decarboxylation reaction were monitored by UV spectroscopy at 280 nm for 45 minutes and the initial rate "v" was calculated directly from the kinetic software included with the spectrophotometer (Hewlett Packard Diode Array Spectrophotometer 8452A).
Based upon the scanning assay studies, a series of 144 individual polypeptides was prepared and assayed as above except that the oxalacetic acid concentration was 11.5 mM. These polypeptides had the sequence of SEQ ID NO:2 with residues at positions Xaa^6 being Glu, Lys or Trp; residues at Xaa^9 being Ala, Asn or Trp; residues at Xaa^13 being Glu, Gln, Val or Trp; and residues at position Xaa^16 being Asp, Met, Gln or Arg (3×3×4×4=144).

Substance	IC50 (μg/ml) against S. aureus [1] [µg/mL]	IC50 (μg/ml) against E. coli (E. coli ATCC 25922) [µg/mL]	HC50 (μg/ml) against Erythrocytes [2] [µg/mL]	also measured
YKLLKLLLPKLKPLLIKL-NH2 [SEQ ID NO: 7, YKLLKLLLPKLKPLLIKL]	2.81	1.87	68.90	
YKLLKELLAKLKWLLRKL-NH2 [YKLLKELLAKLKWLLRKL-NH2]				Kcat /Km (S^-1 M^-1) ([3]; Table 4): 2.66 S^-1 M^-1; Km ([3]; Table 4): 5.66 mM; kcat × 10^3 (S^-1) ([3]; Table 4): 15.08 S^-1
YKLLKLLLPKLKPLLPKL-NH2 [SEQ ID NO: 8, YKLLKLLLPKLKPLLPKL]	22.82	3.14	> 125	Kcat /Km (S^-1 M^-1) ([3]; Table 4): 0.53 S^-1 M^-1; Km ([3]; Table 4): 8 mM; kcat × 10^3 (S^-1) ([3]; Table 4): 4.22 S^-1
YKLLKLLLPKLKPLLFKL-NH2 [SEQ ID NO: 6, YKLLKLLLPKLKPLLFKL]	2.11	1.98	54.74	
YKLLKLLLPKLKGLLIKL-NH2 [SEQ ID NO: 4, YKLLKLLLPKLKGLLIKL]	2.52	3.61	28.41	
YKLLKLLLPKLKGLLPKL-NH2 [SEQ ID NO: 5, YKLLKLLLPKLKGLLPKL]	5.14	2.65	> 125	
YKLLKKLLKKLKKLLKKL-NH2 [SEQ ID NO: 9, YKLLKKLLKKLKKLLKKL-NH2, reference compound]		9		IC50 value ([1]; ATCC 29213): 16 µg/mL; IC50 (E. coli ATCC 25922; ATCC 25922, 18 h): 9 µg/mL; HD50 value [2]: 27 µg/mL; Kcat /Km (S^-1 M^-1) ([3]; Table 3): 0.70 S^-1 M^-1; Km ([3]; Table 3, 0.2 mM peptide, oxalacetic acid 2.8 to 22.8 mM, pH 7.0, 22° C.): 13.5 mM; kcat × 10^3 (S^-1) ([3]; Table 3): 9.5 S^-1
YKLLKLLLPKLKGLLFKL-NH2 [SEQ ID NO: 3, YKLLKLLLPKLKGLLFKL]	1.71	2.40	24.41	
